Among the data in patent publication EP2135515A1, “Taste enhancing compound” (FIRMENICH SA, priority 2008, dated 2009) are minimal effective concentration values, retold here.

This assay in a line: Half-tongue test: recognition threshold for velvety mouthcoating, trained sensory panel. Type of assay: in vivo. The following applies: Homo sapiens. As to the method:
The threshold at which the compound delivered a noticeable velvety mouthcoating was evaluated as follows:
The isolated compound was suspended in water, and, after removing the volatiles in high vacuum (<5 mPa), was freeze-dried twice.
The freeze-dried sample was taken up in water, adjusted to pH 4.5 using hydrochloric acid, and stepwise diluted (1+1) with water. This is referred to herein as "sample 1". A second sample was prepared comprising water (Evian®) adjusted to pH 4.5 using hydrochloric acid. This is referred to herein as "sample 2". Both samples were stored at room temperature.
Twelve panelists with no history of known taste disorders were trained to evaluate the taste of aqueous solutions (2 mL each) of the following standard taste compounds in bottled water (pH 4.5) by using a triangle test as described in the literature (20): sucrose (50 mmol/L) for sweet taste, lactic acid (20 mmol/L) for sour taste, NaCl (20 mmol/L) for salty taste, caffeine (1 mmol/L) for bitter taste, sodium glutamate (3 mmol/L) for umami taste. For the puckering astringency and the velvety astringent, mouth-drying oral sensation, the panel was trained by using gallustannic acid (0.05%) and quercetin-3-O-β-D-glucopyranoside (0.01 mmol/L), respectively, using the half-tongue test (see Scharbert S., Holzmann N., Hofmann T. Identification of the astringent taste compounds in black tea infusions by combining instrumental analysis and human bioresponse. J. Agric. Food Chem. 2004, 52, 3498-3508).
Samples 1 and 2 were presented in order of increasing concentrations to the panel. The panelists, wearing noseclips, were asked to determine the dilution at which a difference was detectable between the samples using the "half-tongue" test. The test was performed three times. When the panelist selected correctly, the same concentration was presented again besides one blank as a proof for the correctness of the data. The geometric mean of the last and the second last concentration was calculated and taken as the individual recognition threshold. The values between individuals and between five separate sessions differed by not more than plus or minus one dilution step.
For comparison with the mouthfeel-enhancing threshold of known ingredients in vanilla extract, the half-tongue test was repeated using vanillic acid, p-hydroxybenzoic acid, guaiacol, p-hydroxybenzaldehyde and vanillin respectively instead of sample 1.

Where [1] appears, read: half-tongue test, in water pH 4.5, twelve trained panelists wearing noseclips, geometric mean of last and second last concentration, read-out: Mouthfeel threshold.

SMILES strings stand for the structures. Read-outs that look alike come from different tables or passages of the source.

As to `COc1ccccc1O` [Guaiacol], the minimal effective concentration under setting [1] came out at 240 µM.

Take `COc1cc(-c2cc(OC)c(O)c(-c3ccc(O)c(OC)c3)c2)ccc1O` [Sample 1, triguaiacol]: the minimal effective concentration under setting [1] came out at 0.01 µM.

Turning to `COc1cc(C(=O)O)ccc1O` [Vanillic acid], the minimal effective concentration under setting [1] turned out to be 320 µM.

As to `COc1cc(C=O)ccc1O` [Vanillin], the minimal effective concentration under setting [1] was 150 µM.

On to `O=Cc1ccc(O)cc1` [p-hydroxybenzaldehyde], for which, under “pH 4.5, read-out: Mouthfeel threshold”, the minimal effective concentration was found to be 205 µM.

On to `O=C(O)c1ccc(O)cc1` [p-hydroxybenzoic acid], for which the minimal effective concentration under setting [1] came to 250 µM.
